{"source": "patent US20210244791A1", "about": "“APPLICATION OF PEDF-DERIVED SHORT PEPTIDES IN TENDON HEALING” (BRIM Biotechnology, Inc., priority 2018, published 2021)", "key": {"cyclin D1": {"system": "cyclin D1", "assay": "Western blot analysis of cyclin D1 expression in TSPC", "format": "cell-based, rabbit", "details": "TSPC treated 24 h; compared with solvent-treated cells; normalized to β-actin", "procedure": "Primary rabbit TSPC were treated with 10NM 29-mer or its variants for 24 h. Representative blots (A) and densitometric analysis with the SD (B) from three independent experiments are shown. Cyclin D1 expression was normalized to ([…]. *P<0.01 vs. solvent-treated cells. ^#P<0.05 vs. 29-mer-treated cells.\nAchilles tendons from New Zealand White rabbits (6-8 months old, 3.0-4.0 kg) were used in this study. Achilles tendons were washed two times with sterile phosphate-buffered saline (PBS) containing 50 μg/ml gentamicin. The tendon and tendon sheath were cut into small pieces (1-2 mm^3). Each 100 mg of fragment was then digested in a solution containing 3 mg/ml of type I collagenase and 4 mg/ml of dispase in 1 ml balance salt solution (BSS; Alcone) at 37° C. for 4 hours. The digested tissues were washed three times with PBS and collected by centrifugation (800 g for 10 min). The digested tissues were placed in tissue-culture plates (Falcon Labware; NJ, USA) and resuspended in high-glucose DMEM supplemented with 10% FBS and 50 μg/ml gentamycin, and maintained at 37° C. with 5% CO2. After 5 days, the medium was changed to remove the loosened tissue residues. Subsequently, tendon cells were incubated with 10% FBS medium for 2 days, and then cultured with a basal medium (2% FBS, 1% ITSE, 300 μg/ml L-glutamine, 1% antibiotic-antimicotic solutions) for further 10 days. Culture medium was changed every 3 days. For passage, tendon cells were harvested with 0.25% trypsin/EDTA, cell counting by haemocytometer, approximately 5×10^3 cells were seeded in each well of a 96-well cell culture plate or 2×10^5 cells were seeded in each well of a 6-well cell culture plate for 24 h. These expanded tendon cells were then treated with 10 μM 29-mer or its variants in fresh basal medium for further 24 h and subjected to cell proliferation assay and western blot analysis, respectively.\nCell lysis, SDS-PAGE, and antibodies used for immunoblotting were performed as described (Ho et al., 15-deoxy-Delta(12,14)-prostaglandin J2 induces vascular endothelial cell apoptosis through the sequential activation of MAPKS and p53. J Biol. Chem., 2008; 283(44): 30273-30288). The band intensity in immunoblot was evaluated with a Model GS-700 imaging densitometer (Bio-Rad Laboratories, Hercules, Calif.) and analyzed using Labworks 4.0 software.\nHowever, the 29-mer effect on cyclin D1 protein induction was almost abolished by alanine/glycine replacement at residue S93, A96, Q98, 1103, 1104 and R106, respectively (1.3±0.1, 1.5±0.3, 1.3±0.1, 0.9±0.1, 1.3±0.2, and 1.0±0.3). […] The data also imply that the PDSP at positions Ser93, Ala96, Gln98, Ile103, Ile104, and Arg106 are important for sustaining the PDSP effect on induction of TSPC proliferation."}, "injured Achilles tendon": {"system": "injured Achilles tendon", "assay": "Rat model of Achilles tendon injury, histology (H&E) and histopathological score", "format": "in vivo", "details": "1 week postoperative", "source_text": "Representative micrographs of the histopathological analysis by H&E staining. H&E-stained sections in higher magnification show uninjured tendon tissue with a relative scarcity of cells among the collagen fibers.\n(A) Representative H&E-stained longitudinal sections in higher magnification show the nuclei morphologies in uninjured tendon tissue and injured tendon treated with vehicle/alginate and 29-mer/alginate for 1 week. (B) Histopathological scores. Total scores were determining by fiber structure, fiber arrangement, rounding of the nuclei, resident cell density and inflammation (infiltration of inflammatory cells, neovascularization and fatty deposits). Data are reported as mean±SE. *P<0.0005 versus vehicle/alginate-treated tendon; ^#P<0.05 versus 29-mer/alginate-treated tendon.\n(§1) To investigate the effects of the 29-mer peptide on tendon healing, a rat model of Achilles tendon injury was established as reported by Orhan et al. (The effect of extracorporeal shock waves on a rat model of injury to tendon Achilles. A histological and biomechanical study. J. Bone Joint Surg. Br. 2004;.86(4):.613-618). Adult 10-week-old male Sprague-Dawley rats (initial body weight=312±11 g) were anesthetized by an intraperitoneal injection of xylazine (10 mg/kg). Then, the left tendo Achilles injury was created by full-thickness insertion of an 18-G needle through tendo Achilles 1 cm proximal to the calcaneum attachment site. This created a horizontal wound that was flanked by intact tendon tissue to prevent the retraction of severed ends. The skin incision was closed after the wound was irrigated with sterile saline. Treatments were applied to area around the tendon lesion by subcutaneous injection with 150 μl of alginate gel mixed with 100 μM 29-mer or DMSO vehicle (six rats per experimental condition).\nThe tendon and surrounding soft tissue were dissected. Specimens were fixed in a 4% paraformaldehyde (PFA) solution and then were embedded in paraffin blocks. Sections (5 μm in thickness) were longitudinally cut and stained with hematoxylin and eosin (H&E) or used for immunohistochemical examination. 36 sections per tendon were carefully prepared so as to include the most severely degenerated area. Images were captured using a Nikon Eclipse 80i microscope (Nikon Corporation, Tokyo, Japan) equipped with a Leica DC 500 camera (Leica Microsystems, Wetzlar, Germany). Four sections of each sample containing injured tendon tissues were selected and evaluated by two blinded observers to assess the tendon morphology according to a modified semi-quantitative grading score from 0 to 3 proposed by Chen et al. (Tendon derived stem cells promote platelet-rich plasma healing in collagenase-induced rat Achilles tendinopathy. Cell Physiol. Biochem., 2014; 34(6): 2153-68). The scores analyzed the fiber structure (0-3), fiber arrangement (0-3), rounding of the nuclei (0-3), resident cell density (0-3), and inflammation (0-3; infiltration of inflammatory cells, neovascularization and fatty deposits). According to this grading system, a perfectly normal tendon obtained a score of 0, whereas a score of 15 was assigned to maximally abnormal tendons.\nTo investigate the therapeutic effect of the 29-mer peptide on injured tendon, a rat model of Achilles tendon injury was established by full-thickness insertion of an 18-G needle through the tendon Achilles. We delivered the 29-mer in a 150 μl alginate gel, which releases 90% loaded 29-mer in 5 days as described in a previous protocol (Ho et al., PEDF-derived peptide promotes skeletal muscle regeneration through its mitogenic effect on muscle progenitor cells. Am J Physiol. Cell Physiol. 2015 Aug. 1; 309(3): C159-68)."}, "CD146-positive TSPC": {"system": "CD146-positive TSPC", "assay": "CD146 immunostaining of TSPC in injured Achilles tendon", "format": "in vivo, rat", "details": "1 week after wounding; peptide/alginate gel; vehicle/alginate 38.3±7.8", "procedure": "(A) Representative CD146-stained longitudinal sections. (Original magnification×200). (B) The number of CD146-positive TSPC per 200×field of view on injured tendon sections. Data are reported as mean±SE. Total CD146^+ cells were evaluated from 6 sections/tendon specimen, with 3 rats in each group. *P<0.001 versus vehicle/alginate-treated tendon; #p <0.001 versus 29-mer/alginate-treated tendon.\nas §1, with “The skin incision was closed after the wound was irrigated with sterile saline. Treatments were applied to area around the tendon lesion by subcutaneous injection with 150 μl of alginate gel mixed with 100 μM 29-mer or DMSO vehicle (six rats per experimental condition).” left out\nCD146 is one of the TSPC markers. […] To test the mechanism of the 29-mer-induced tendon repair, CD146 immunostaining of TSPC located at injured tendon was measured, at 1 week after wounding. […]"}}, "data": [{"substance": "H105A: 29-mer variant with single alanine alteration at residue 105 (SLGAEQRTESIIARALYYDLISSPDIHGT; UniProt P36955 93-121, looked up, variant H105A)", "values": [{"measurement": "induction of the cyclin D1 protein", "setting": "cyclin D1", "value": "2.7±0.3", "unit": "fold"}, {"measurement": "total histopathological score", "setting": "injured Achilles tendon; peptide/alginate gel, 0 = normal tendon, 15 = maximally abnormal, vehicle/alginate 12.7±0.6", "value": "7.8±0.7"}, {"measurement": "histological appearance of treated tendon (H&E staining)", "setting": "injured Achilles tendon; subcutaneous 150 μl alginate gel with 100 μM peptide", "value": "uniform appearance of well-aligned collagen fibers and no degenerative events similar to the 29-mer treatment"}, {"measurement": "number of CD146-positive TSPC on injured tendon sections", "setting": "CD146-positive TSPC", "value": "88.5±7.8", "unit": "cells per 200× field"}]}]}
